Columns and labels:
CCRF-CEM = assay: Cytotoxicity against human CCRF-CEM cells assessed as reduction in cell viability after 72 hrs by RRA assay; type: functional, cell-based
HepG2 [1] = assay: Cytotoxicity against human HepG2 cells assessed as reduction in cell viability after 72 hrs by RRA assay; type: functional, cell-based; conditions: HepG2, 72 h
[2] = Cytotoxicity against human U87.deltaEGFR cells assessed as reduction in cell viability after 72 hrs by RRA assay; type: functional, cell-based; conditions: U87MG.deltaEGFR
U-87 MG = assay: Cytotoxicity against human U87 cells assessed as reduction in cell viability after 72 hrs by RRA assay; type: functional, cell-based, U-87MG ATCC
HCT-116 [3] = assay: Cytotoxicity against human HCT-116 p53-/- cells assessed as reduction in cell viability after 72 hrs by RRA assay; type: functional, cell-based; conditions: HCT-116, 72 h
[4] = Resistant index, ratio of IC50 for cytotoxicity against human CEM/ADR5000 cells to IC50 for cytotoxicity against human CCRF-CEM cells; type: functional
HCT-116 [5] = assay: Cytotoxicity against human HCT-116 p53+/+ cells assessed as reduction in cell viability after 72 hrs by RRA assay; type: functional, cell-based; conditions: HCT-116, 72 h
[6] = Selectivity index, ratio of IC50 for cytotoxicity against mouse AML12 cells to IC50 for cytotoxicity against human HepG2 cells
[7] = Resistant index, ratio of IC50 for cytotoxicity against human U87MG.deltaEGFR cells to IC50 for cytotoxicity against human U87 cells; type: functional
[8] = Cytotoxicity against human MDA-MB-231/BCRP cells assessed as reduction in cell viability after 72 hrs by RRA assay; type: functional, cell-based
[9] = Cytotoxicity against mouse AML12 cells assessed as reduction in cell viability after 72 hrs by RRA assay; type: cell-based; conditions: AML12, 72 h
[10] = Resistant index, ratio of IC50 for cytotoxicity against human MDA-MB-231/BCRP cells to IC50 for cytotoxicity against human MDA-MB-231 pcDNA cells; type: functional
[11] = Resistant index, ratio of IC50 for cytotoxicity against human HCT-116 p53-/- cells to IC50 for cytotoxicity against human HCT-116 p53+/+ cells
ADR5000 cell line = assay: Cytotoxicity against human CEM/ADR5000 cells assessed as reduction in cell viability after 72 hrs by RRA assay; type: functional, cell-based; conditions: ADR5000, 72 h
MDA-MB-231 = assay: Cytotoxicity against human MDA-MB-231 pcDNA cells assessed as reduction in cell viability after 72 hrs by RRA assay; type: functional, cell-based; conditions: MDA-MB-231, 72 h
HepG2 [12] = assay: Cytotoxicity against human HepG2 cells assessed as reduction in cell viability after 72 hrs by SRB assay; type: functional, cell-based; conditions: HepG2, 72 h
THP-1 = assay: Cytotoxicity against human THP-1 cells assessed as reduction in cell viability after 72 hrs by SRB assay; type: functional, cell-based; conditions: THP-1, 72 h
DU-145 = assay: Cytotoxicity against human DU-145 cells assessed as reduction in cell viability after 72 hrs by SRB assay; type: functional, cell-based; conditions: DU-145, 72 h
HL-60 = assay: Cytotoxicity against human HL-60 cells assessed as reduction in cell viability after 72 hrs by SRB assay; type: functional, cell-based; conditions: HL-60, 72 h
MCF7 = assay: Cytotoxicity against human MCF7 cells assessed as reduction in cell viability after 72 hrs by SRB assay; type: functional, cell-based; conditions: MCF7, 72 h
[13] = Resistant index, ratio of IC50 for cytotoxicity against human HCT-116 p53+/+ cells to IC50 for cytotoxicity against human HCT-116 p53-/- cells; type: functional

SMILES | IC50 (CCRF-CEM) [µM] | IC50 (HepG2 [1]) [µM] | IC50 [2] [µM] | IC50 (U-87 MG) [µM] | IC50 (HCT-116 [3]) [µM] | Ratio IC50 [4] | IC50 (HCT-116 [5]) [µM] | Ratio IC50 [6] | Ratio IC50 [7] | IC50 [8] [µM] | IC50 [9] [µM] | Ratio IC50 [10] | Ratio IC50 [11] | IC50 (ADR5000 cell line) [µM] | IC50 (MDA-MB-231) [µM] | also measured
C#CCOc1ccc(C(CC(=O)c2cccc(Br)c2)CC(=O)c2cccc(Br)c2)cc1OC | > 50 |  |  |  |  |  |  |  |  |  |  |  |  |  |  | 
C#CCOc1ccc(/C=C/C(=O)c2cccc(Br)c2)cc1OC | 15.2 | 10.1 | 4.16 | 2.59 | 1.9 | 0.15 | 2.9 | 1.24 | 1.61 | 3.09 | 12.5 | 0.88 | 0.66 | 2.28 | 3.5 | 
C#CCOc1ccc(/C=C/C(=O)c2ccc(C)cc2)cc1OC | > 50 |  |  |  |  |  |  |  |  |  |  |  |  |  |  | 
C#CCOc1ccc(/C=C/C(=O)c2cccc(OC)c2)cc1OC | 5.59 | 5.54 | 1.33 | 1.46 | 1.01 | 0.2 | 1.92 | 2.05 | 0.91 | 1.23 | 11.4 | 0.09 | 0.53 | 1.1 | 13.8 | 
C#CCOc1ccc(/C=C/C(=O)c2cccc(C)c2)cc1OC | 8.82 | 5.03 | 1.97 | 1.8 | 1.06 | 0.16 | 1.38 | 2.24 | 1.09 | 1.77 | 11.3 | 0.87 | 0.77 | 1.38 | 2.03 | 
C=CCOc1ccc(/C=C/C(=O)c2ccccc2C)cc1OC |  |  |  |  |  |  |  |  |  |  |  |  |  |  |  | IC50 (HepG2 [12]): 10.1 µM; IC50 (THP-1): 4.76 µM; IC50 (DU-145): 5.21 µM; IC50 (HL-60): 7.9 µM; IC50 (MCF7): 10.3 µM
C#CCOc1ccc(/C=C/C(=O)c2cccn2C)cc1OC | > 50 |  |  |  |  |  |  |  |  |  |  |  |  |  |  | 
C=CCOc1ccc(C=O)cc1OC | 14 | 10.5 | 6.97 | 7.5 | 8.02 | 0.25 | 5.77 | 1.46 | 0.93 | 7.53 | 15.3 | 0.5 | 1.39 | 3.48 | 15 | 
C#CCOc1ccc(/C=C/C(=O)c2ccccc2C)cc1OC | 6.95 | 2.64 | 1.21 | 2.1 | 1.06 | 0.13 | 1.66 | 3.11 | 0.58 | 0.99 | 8.2 | 0.07 | 0.64 | 0.92 | 14.8 | 
C#CCOc1ccc(C(=O)/C=C/c2ccc(OCC=C)c(OC)c2)cc1CC=C | > 50 |  |  |  |  |  |  |  |  |  |  |  |  |  |  | 
C#CCOc1ccc(C(CC(=O)c2cccc(C)c2)CC(=O)c2cccc(C)c2)cc1OC | > 50 |  |  |  |  |  |  |  |  |  |  |  |  |  |  | 
C=CCc1cc(C(C)=O)ccc1OCC=C(C)C | 16.2 | 14.7 | 12.2 | 12.9 | 14 | 0.32 | 10.6 | 1.23 | 0.94 | 11.9 | 18.1 | 0.67 | 1.31 | 5.25 | 17.9 | 
C=CCOc1ccc(/C=C/C(=O)c2ccc(OCC=C(C)C)c(CC=C)c2)cc1OC | > 50 |  |  |  |  |  |  |  |  |  |  |  |  |  |  | 
C#CCOc1ccc(/C=C/C(=O)c2ccc3c(c2)OCO3)cc1OC | > 50 |  |  |  |  |  |  |  |  |  |  |  |  |  |  | 
C=CCOc1ccc(/C=C\C(=O)c2ccc(OCC=C(C)C)c(CC=C)c2)cc1OC | > 50 |  |  |  |  |  |  |  |  |  |  |  |  |  |  | 
C#CCOc1ccc(/C=C/C(=O)c2ccn(C)c2)cc1OC | > 50 |  |  |  |  |  |  |  |  |  |  |  |  |  |  | 
C#CCOc1ccc(C=O)cc1OC | > 50 |  |  |  |  |  |  |  |  |  |  |  |  |  |  | 
C#CCOc1ccc(/C=C/C(=O)c2ccc(C(C)C)cc2)cc1OC | 11.8 | 6.31 | 2.12 | 2.84 | 3.13 | 0.23 | 3.7 | 1.57 | 0.75 | 2.93 | 9.91 | 0.72 |  | 2.72 | 4.07 | Ratio IC50 [13]: 0.85
C#CCOc1ccc(/C=C/C(=O)c2ccc(-n3ccnc3)cc2)cc1OC | 15 | 5.39 | 1.08 | 1.41 | 0.67 | 0.07 | 0.78 | 2.36 | 0.77 | 1.74 | 12.7 | 0.86 | 0.86 | 1 | 2.03 | 
C#CCOc1ccc(/C=C/C(=O)c2ccc(CC=C(C)C)cc2)cc1OC | > 50 |  |  |  |  |  |  |  |  |  |  |  |  |  |  | 
C#CCOc1ccc(/C=C/C(=O)c2ccc(OC)c(OC)c2)cc1OC | 8.65 | 5.98 | 1.56 | 2.86 | 0.32 | 0.17 | 2.01 | 1.13 | 0.55 | 1.89 | 6.75 | 0.14 | 0.16 | 1.44 | 13.6 | 
C#CCOc1ccc(C(C)=O)cc1CC=C | 38.2 |  |  |  |  |  |  |  |  |  |  |  |  |  |  | 
COc1cccc2c1C(=O)c1c(O)c3c(c(O)c1C2=O)C[C@@](O)(C(=O)CO)C[C@@H]3O[C@H]1C[C@H](N)[C@H](O)[C@H](C)O1 [DOXORUBICIN] | 0.02 | 4.56 | 0.98 | 0.26 | 1.78 |  |  |  |  | 0.79 | 52.9 |  |  |  | 0.13 | 
